What all share (assay): relative viability (nuclei count vs DMSO), 5 days (fraction); higher = more cells survive
Compound in assay [1]: CC1=CN=C(N=C1C2=CNC(=C2)C(=O)N[C@H](CO)C3=CC(=CC=C3)Cl)NC4=C(C=C(C=C4)F)Cl [VX-11e] + CC(=O)c1c(C)c2cnc(Nc3ccc(N4CCNCC4)cn3)nc2n(C2CCCC2)c1=O [Palbociclib] (partner 0.5 µM)
A digest of the protocol: (§1)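 Lung cancer cell lines were pin-tool dosed in 1536-well plates on the day after seeding, with either a lone drug or a fixed anchor-drug dose plus five library-drug doses (not always all listed) in √10 steps. Nuclei were counted on 4× images after 5 days. Relative viability is the ratio of treated-well to vehicle-well nuclei counts, with each value a median of duplicate plates.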

Compound in assay [2]: CC1=CN=C(N=C1C2=CNC(=C2)C(=O)N[C@H](CO)C3=CC(=CC=C3)Cl)NC4=C(C=C(C=C4)F)Cl [VX-11e] + CS(=O)(=O)N1CCN(Cc2cc3nc(-c4cccc5[nH]ncc45)nc(N4CCOCC4)c3s2)CC1 [Pictilisib] (partner 1 µM)
A digest of the protocol:
as §1

Compound in assay [3]: CC1=CN=C(N=C1C2=CNC(=C2)C(=O)N[C@H](CO)C3=CC(=CC=C3)Cl)NC4=C(C=C(C=C4)F)Cl [VX-11e] + N=C(N)NC(=N)NCCc1ccccc1 [Phenformin] (partner 250 µM)
A digest of the protocol: as §1

Compound in assay [4]: CC1=CN=C(N=C1C2=CNC(=C2)C(=O)N[C@H](CO)C3=CC(=CC=C3)Cl)NC4=C(C=C(C=C4)F)Cl [VX-11e] + Nc1ncn([C@H]2C[C@H](O)[C@@H](CO)O2)c(=O)n1 [Decitabine] (partner 2 µM)
The procedure, abridged: as §1

LXF-289: the relative viability in assay [1] (first compound 0.04 µM) was determined as 0.633; in assay [1] (first compound 0.1265 µM), 0.61; in assay [1] (first compound 1.265 µM), 0.618; in assay [1] (first compound 4 µM) it was 0.473; in assay [2] (first compound 0.04 µM), 0.785; in assay [2] (first compound 0.1265 µM), 0.754. In addition, the relative viability in assay [2] (first compound 0.4 µM) stood at 0.66; in assay [2] (first compound 1.265 µM), 0.686; in assay [2] (first compound 4 µM) it was 0.333; in assay [3] (first compound 0.04 µM), 0.578; in assay [3] (first compound 0.1265 µM) it was 0.5; in assay [3] (first compound 0.4 µM), 0.16. For the same cell line, the relative viability in assay [3] (first compound 1.265 µM) stood at 0.463; in assay [3] (first compound 4 µM), 0.365; in assay [4] (first compound 0.04 µM) it was 0.364; in assay [4] (first compound 0.1265 µM), 0.376; in assay [4] (first compound 1.265 µM), 0.386; in assay [4] (first compound 4 µM), 0.406.

Take NCI-H1944: the relative viability came to 0.323 in assay [1] (first compound 0.04 µM); 0.343 in assay [1] (first compound 0.1265 µM); 0.338 in assay [1] (first compound 0.4 µM); 0.264 in assay [1] (first compound 1.265 µM); 0.205 in assay [1] (first compound 4 µM); 0.301 in assay [2] (first compound 0.04 µM). In addition, the relative viability amounted to 0.308 in assay [2] (first compound 0.1265 µM); 0.306 in assay [2] (first compound 0.4 µM); 0.309 in assay [2] (first compound 1.265 µM); 0.281 in assay [2] (first compound 4 µM); 0.194 in assay [3] (first compound 0.04 µM); 0.193 in assay [3] (first compound 0.1265 µM). For the same cell line, the relative viability in assay [3] (first compound 1.265 µM) was 0.218; in assay [3] (first compound 4 µM), 0.168; in assay [4] (first compound 0.04 µM), 0.461; in assay [4] (first compound 0.1265 µM), 0.509; in assay [4] (first compound 0.4 µM), 0.412; in assay [4] (first compound 1.265 µM) it was 0.41. The relative viability in assay [4] (first compound 4 µM) was 0.374.

As for NCI-H647, the relative viability in assay [1] (first compound 0.04 µM) worked out at 0.37; in assay [1] (first compound 0.1265 µM) it was 0.346; in assay [1] (first compound 0.4 µM), 0.372; in assay [1] (first compound 1.265 µM), 0.256; in assay [1] (first compound 4 µM), 0.217; in assay [2] (first compound 0.04 µM), 0.32. For the same cell line, the relative viability in assay [2] (first compound 0.1265 µM) came out at 0.26; in assay [2] (first compound 0.4 µM), 0.122; in assay [2] (first compound 1.265 µM) it was 0.381; in assay [2] (first compound 4 µM), 0.132; in assay [3] (first compound 0.04 µM), 0.677; in assay [3] (first compound 0.1265 µM), 0.442. In addition, the relative viability in assay [3] (first compound 0.4 µM) stood at 0.249; in assay [3] (first compound 1.265 µM) it was 0.266; in assay [3] (first compound 4 µM), 0.196; in assay [4] (first compound 0.04 µM), 0.378; in assay [4] (first compound 0.1265 µM), 0.355; in assay [4] (first compound 0.4 µM), 0.349. For the same cell line, the relative viability stood at 0.537 in assay [4] (first compound 1.265 µM) and 0.449 in assay [4] (first compound 4 µM).

As to 201T, the relative viability in assay [1] (first compound 0.04 µM) is 0.206; in assay [1] (first compound 0.1265 µM), 0.337; in assay [1] (first compound 0.4 µM), 0.361; in assay [1] (first compound 1.265 µM), 0.353; in assay [1] (first compound 4 µM), 0.348; in assay [2] (first compound 0.04 µM) it was 0.599. Moreover, the relative viability turned out to be 0.658 in assay [2] (first compound 0.1265 µM); 0.608 in assay [2] (first compound 0.4 µM); 0.542 in assay [2] (first compound 1.265 µM); 0.647 in assay [2] (first compound 4 µM); 0.445 in assay [3] (first compound 0.04 µM); 0.476 in assay [3] (first compound 0.1265 µM). The relative viability in assay [3] (first compound 0.4 µM) came to 0.38; in assay [3] (first compound 1.265 µM), 0.453; in assay [3] (first compound 4 µM), 0.418; in assay [4] (first compound 0.04 µM) it was 0.868; in assay [4] (first compound 0.1265 µM), 0.84; in assay [4] (first compound 0.4 µM) it was 0.831. For the same cell line, the relative viability in assay [4] (first compound 1.265 µM) is 0.831; in assay [4] (first compound 4 µM) it was 0.758.

With NCI-H358, the relative viability in assay [1] (first compound 0.04 µM) stood at 0.122; in assay [1] (first compound 0.1265 µM) it was 0.139; in assay [1] (first compound 0.4 µM), 0.0851; in assay [1] (first compound 1.265 µM), 0.148; in assay [1] (first compound 4 µM), 0.118; in assay [2] (first compound 0.04 µM) it was 0.3. Also, the relative viability in assay [2] (first compound 0.1265 µM) turned out to be 0.313; in assay [2] (first compound 1.265 µM) it was 0.372; in assay [2] (first compound 4 µM) it was 0.254; in assay [3] (first compound 0.04 µM), 0.276; in assay [3] (first compound 0.1265 µM) it was 0.288; in assay [3] (first compound 0.4 µM), 0.07. The relative viability in assay [3] (first compound 1.265 µM) was 0.263; in assay [3] (first compound 4 µM) it was 0.142; in assay [4] (first compound 0.04 µM) it was 0.232; in assay [4] (first compound 0.1265 µM), 0.203; in assay [4] (first compound 0.4 µM), 0.124; in assay [4] (first compound 1.265 µM) it was 0.222. Also, the relative viability in assay [4] (first compound 4 µM) amounted to 0.142.

On to NCI-H441, for which the relative viability in assay [1] (first compound 0.04 µM) was 0.175; in assay [1] (first compound 0.1265 µM), 0.232; in assay [1] (first compound 1.265 µM) it was 0.157; in assay [1] (first compound 4 µM) it was 0.165; in assay [2] (first compound 0.04 µM), 0.349; in assay [2] (first compound 0.1265 µM), 0.518. In addition, the relative viability in assay [2] (first compound 1.265 µM) is 0.371; in assay [2] (first compound 4 µM), 0.24; in assay [3] (first compound 0.04 µM) it was 0.858; in assay [3] (first compound 0.1265 µM), 0.837; in assay [3] (first compound 1.265 µM), 0.732; in assay [3] (first compound 4 µM) it was 0.49. Also, the relative viability in assay [4] (first compound 0.04 µM) worked out at 0.282; in assay [4] (first compound 0.1265 µM), 0.273; in assay [4] (first compound 1.265 µM), 0.218; in assay [4] (first compound 4 µM), 0.306.

In the case of NCI-H1734, the relative viability in assay [1] (first compound 0.04 µM) stood at 0.342; in assay [1] (first compound 0.1265 µM), 0.382; in assay [1] (first compound 0.4 µM), 0.355; in assay [1] (first compound 1.265 µM), 0.327; in assay [1] (first compound 4 µM) it was 0.224; in assay [2] (first compound 0.04 µM) it was 0.358. Moreover, the relative viability in assay [2] (first compound 0.1265 µM) was found to be 0.39; in assay [2] (first compound 0.4 µM), 0.376; in assay [2] (first compound 1.265 µM), 0.31; in assay [2] (first compound 4 µM), 0.245; in assay [3] (first compound 0.04 µM) it was 0.369; in assay [3] (first compound 0.1265 µM), 0.391. The relative viability was determined as 0.323 in assay [3] (first compound 0.4 µM); 0.231 in assay [3] (first compound 1.265 µM); 0.209 in assay [3] (first compound 4 µM); 0.482 in assay [4] (first compound 0.04 µM); 0.523 in assay [4] (first compound 0.1265 µM); 0.428 in assay [4] (first compound 0.4 µM). Besides, the figures for the relative viability in assay [4] (first compound 1.265 µM) and in assay [4] (first compound 4 µM) were 0.538 and 0.368, respectively.

For NCI-H1792, the relative viability in assay [1] (first compound 0.04 µM) was found to be 0.684; in assay [1] (first compound 0.1265 µM) it was 0.586; in assay [1] (first compound 0.4 µM), 0.645; in assay [1] (first compound 1.265 µM) it was 0.541; in assay [1] (first compound 4 µM), 0.319; in assay [2] (first compound 0.04 µM), 0.299. Further, the relative viability stood at 0.2 in assay [2] (first compound 0.1265 µM); 0.319 in assay [2] (first compound 0.4 µM); 0.27 in assay [2] (first compound 1.265 µM); 0.0521 in assay [2] (first compound 4 µM); 0.151 in assay [3] (first compound 0.04 µM); 0.386 in assay [3] (first compound 0.1265 µM). In addition, the relative viability in assay [3] (first compound 0.4 µM) was found to be 0.137; in assay [3] (first compound 1.265 µM), 0.0901; in assay [3] (first compound 4 µM), 0.038; in assay [4] (first compound 0.1265 µM), 0.493; in assay [4] (first compound 1.265 µM), 0.619; in assay [4] (first compound 4 µM), 0.328.
